The record followed here is US20060035927A1, “Calcilytic compounds” (SmithKline Beecham Corporation, priority 1999, published 2006).

Where a name gives a salt, the structure may show the parent alone.

The test system of one data set is osteoblasts. Put plainly: Toxicity in vitro in osteoblast assays. The class given is cell-based, human. As to conditions: 10 uM concentration. The procedure:
(§1) cAMP accumulation was measured in both human TF274 osteoblastic cells (derived by immortalization of human bone marrow stromal cells) see James, supra, and primary human osteoblasts derived from explants of trabecular bone as described in Beresford, Biochim. Biophys. Acta, Vol. 801, pp. 58-65 ([…]). cAMP levels in cell samples were measured using a non-radioactive protocol (Amersham kit). Alkaline phosphatase activity was determined using the standard colorimetric method as described previously in Gowen, Arth. Rheum., Vol. 31, pp. 1500-1507 (1988). N-[(2R-Hydroxy-3-[(3-chloro-2-cyano)phenoxy-propyl]-1,1-dimethyl-2-(2-naphthyl)ethyl amine hydrochloride was tested at 0.1, 1 and 10 uM. PTH 40 ng/ml was used as a positive control.

The next data set has as its target T1, Ca^2+ receptor (Homo sapiens, UniProt P41180).
T1 sequence (P41180 20-1078): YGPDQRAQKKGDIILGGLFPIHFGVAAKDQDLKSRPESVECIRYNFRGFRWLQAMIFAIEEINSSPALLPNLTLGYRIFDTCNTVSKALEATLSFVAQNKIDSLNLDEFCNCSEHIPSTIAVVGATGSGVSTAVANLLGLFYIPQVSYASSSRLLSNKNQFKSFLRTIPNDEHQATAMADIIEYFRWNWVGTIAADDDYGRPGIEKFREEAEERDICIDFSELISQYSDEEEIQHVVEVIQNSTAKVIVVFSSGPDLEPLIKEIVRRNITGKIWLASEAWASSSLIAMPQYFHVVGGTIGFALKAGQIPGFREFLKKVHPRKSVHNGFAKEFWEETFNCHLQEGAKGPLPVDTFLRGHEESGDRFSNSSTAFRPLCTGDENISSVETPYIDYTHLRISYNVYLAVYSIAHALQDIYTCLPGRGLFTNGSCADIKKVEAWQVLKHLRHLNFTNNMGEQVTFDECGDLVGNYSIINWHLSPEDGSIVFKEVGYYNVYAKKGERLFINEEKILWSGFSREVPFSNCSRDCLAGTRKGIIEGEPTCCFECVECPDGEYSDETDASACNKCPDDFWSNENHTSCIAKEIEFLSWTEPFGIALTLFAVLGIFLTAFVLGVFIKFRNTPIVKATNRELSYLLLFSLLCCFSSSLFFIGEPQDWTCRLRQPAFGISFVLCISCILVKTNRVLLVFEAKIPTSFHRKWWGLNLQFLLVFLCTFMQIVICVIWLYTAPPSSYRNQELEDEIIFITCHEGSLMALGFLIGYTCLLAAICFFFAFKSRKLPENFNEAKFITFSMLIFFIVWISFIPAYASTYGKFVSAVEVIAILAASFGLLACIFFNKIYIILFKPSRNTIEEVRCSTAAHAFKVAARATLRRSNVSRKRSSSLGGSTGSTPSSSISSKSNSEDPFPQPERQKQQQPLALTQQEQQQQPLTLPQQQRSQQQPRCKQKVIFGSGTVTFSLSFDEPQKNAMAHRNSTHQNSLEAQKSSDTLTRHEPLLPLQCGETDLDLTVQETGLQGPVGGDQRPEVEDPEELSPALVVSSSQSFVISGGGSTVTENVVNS
Put plainly: Ca2+ receptor-mediated Ca2+ mobilization. The class given is cell-based. A general note: Calcium assays in cells follow changes in intracellular calcium, usually with a dye or a luminescent sensor.

The subject of another data set is human osteoclasts. Kind of data set: Human osteoclast-mediated bone resorption assay. The class given is cell-based. As to conditions: concentrations up to 3 uM, 24 hours. The method, then:
The isolation of disaggregated human osteoclasts from fresh osteoclastoma tissue and the in vitro human osteoclast resorption assay were performed according to James, J. Bone Min. Res., Vol. 11, pp. 1453-1460. Briefly, human osteoclasts were seeded onto bovine cortical bone particles with compound or vehicle for 24 hours at 37° C. The culture media were then removed and the levels of the carboxy-terminal peptide of the α1 chain of human type I collagen were quantified as a biochemical readout of resorption, using a competitive binding enzyme linked immunosorbant assay (ELISA) (19) (Osteometer A/S, Rodovre, Denmark). The results are expressed as percent inhibition of resorption compared to supernatants derived from osteoclasts cultured in vehicle without inhibitor. IC50 values are determined from the resultant dose response curves.

The subject of data set [1] is primary human osteoblasts. Put plainly: Osteoblast cAMP production, primary human osteoblasts. The class given is cell-based. As to conditions: compound 0.1, 1 and 10 uM. The method, then:
as §1
A general note: cAMP levels reflect the balance of adenylyl cyclase and phosphodiesterase activity.

Take `CC(C)(Cc1ccc2ccccc2c1)NC[C@@H](O)COc1cccc(Cl)c1C#N` [N-[(2R-Hydroxy-3-[(3-chloro-2-cyano)phenoxy-propyl]-1,1-dimethyl-2-(2-naphthyl)ethylamine hydrochloride]: in the data set with osteoblasts, the toxicity in vitro result is “some toxicity”. Further, on Ca^2+ receptor, the “fold by which fetal rat long bone IC50 exceeds IC50 for Ca^2+ receptor-mediated Ca^2+ mobilization” value is recorded as “approximately 300 fold”. The “effect on human osteoclast mediated bone resorption” value in the data set with human osteoclasts was “no effect”. The “PTH-induced cAMP levels” value in data set [1] (PTH 40 ng/ml) is reported as “no effect”. Also, in data set [1] (PTH 40 ng/ml positive control), the “cAMP levels (basal)” value is listed as “no effect”.
